Measured values published in ChEMBL document CHEMBL1130324, “Exceptionally potent antispermatogenic compounds from 8-halogenation of (4aRS,5SR,9bRS)-hexahydroindeno-[1,2-c]pyridines” (1997).

Key:
Assay type in all cases: functional
[1] = system: Mus musculus; assay: Spermatogenic index (percent change from vehicle control) was calculated in Adult Male Swiss Mice at 6 (umol/kg) dose
[2] = system: Mus musculus; assay: Spermatogenic index (percent change from vehicle control) was calculated in Adult Male Swiss Mice at 20 (umol/kg) dose
[3] = system: Mus musculus; assay: Spermatogenic index (percent change from vehicle control) was calculated in Adult Male Swiss Mice at 2 (umol/kg) dose
[4] = system: Mus musculus; assay: Spermatogenic index (percent change from vehicle control) was calculated in Adult Male Swiss Mice at 7 (umol/kg) dose
[5] = system: Mus musculus; assay: Spermatogenic index (percent change from vehicle control) was calculated in Adult Male Swiss Mice at 25 (umol/kg) dose
[6] = system: Mus musculus; assay: Spermatogenic index (percent change from vehicle control) was calculated in Adult Male Swiss Mice at 75 (umol/kg) dose
[7] = system: Mus musculus; assay: Spermatogenic index (percent change from vehicle control) was calculated in Adult Male Swiss Mice at 8 (umol/kg) dose
[8] = system: Mus musculus; assay: Spermatogenic index (percent change from vehicle control) was calculated in Adult Male Swiss Mice at 3 (umol/kg) dose
[9] = system: Mus musculus; assay: Spermatogenic index (percent change from vehicle control) was calculated in Adult Male Swiss Mice at 21 (umol/kg) dose
[10] = system: Mus musculus; assay: Spermatogenic index (percent change from vehicle control) was calculated in Adult Male Swiss Mice at 62 (umol/kg) dose
[11] = system: Mus musculus; assay: Spermatogenic index (percent change from vehicle control) was calculated in Adult Male Swiss Mice at 26 (umol/kg) dose
[12] = system: Mus musculus; assay: Spermatogenic index (percent change from vehicle control) was calculated in Adult Male Swiss Mice 79 (umol/kg) dose
[13] = system: Mus musculus; assay: Spermatogenic index (percent change from vehicle control) was calculated in Adult Male Swiss Mice at 19 (umol/kg) dose
[14] = system: Mus musculus; assay: Spermatogenic index (percent change from vehicle control) was calculated in Adult Male Swiss Mice at 0.6 (umol/kg) dose

**Q.** Which SI [1] does the source give for `CCN1CC[C@H]2[C@H](c3ccc(C(=O)O)cc3)c3cc(C)c(I)cc3[C@H]2C1` here?
**A.** The SI was -66%.

**Q.** And the SI [2]?
**A.** Its SI is -76%.

**Q.** What about the SI [3] of the same compound?
**A.** The SI was -67%.

**Q.** What does the source list for `CCN1CC[C@H]2[C@H](c3ccc(C(=O)O)cc3)c3cc(C)c(Cl)cc3[C@H]2C1`?
**A.** SI [4]: -66%; SI [5]: -72%; SI [3]: -55%

**Q.** For `CCN1CC[C@H]2[C@H](c3ccc(C(=O)OC)cc3)c3cc(C)ccc3[C@H]2C1`, which SI [6] is on record?
**A.** The SI was -64%.

**Q.** And the SI [7]?
**A.** Its SI is -2%.

**Q.** What about the SI [5] of the same compound?
**A.** Its SI is -33%.

**Q.** What about the SI [8] of the same compound?
**A.** Its SI is 3%.

**Q.** What does the source list for `CCN1CC[C@H]2[C@H](c3ccc(C(=O)O)cc3)c3cc(C)c(Br)cc3[C@H]2C1`?
**A.** SI [1]: -69%; SI [9]: -71%; SI [10]: -72%

**Q.** For `CCN1CC[C@H]2[C@H](c3ccc(C(=O)O)cc3)c3cc(C)ccc3[C@H]2C1`, which SI [11] is on record?
**A.** Its SI is -24%.

**Q.** What about the SI [12] of the same compound?
**A.** The SI was -52%.

**Q.** For `CCN1CC[C@H]2[C@H](c3ccc(C(=O)OC)cc3)c3cc(C)c(I)cc3[C@H]2C1` (stereo in doubt; 2b), which SI [1] is on record?
**A.** Its SI is -69%.

**Q.** What about the SI [2] of the same compound?
**A.** The SI was -74%.

**Q.** And the SI [3]?
**A.** The SI was -57%.

**Q.** How did the SI [1] turn out when `CCN1CC[C@H]2[C@H](c3ccc(C(=O)OC)cc3)c3cc(C)c(I)cc3[C@H]2C1` (stereo in doubt; (l)-2b) was run?
**A.** Its SI is -71%.

**Q.** And the SI [13]?
**A.** Its SI is -72%.

**Q.** What about the SI [14] of the same compound?
**A.** The SI was -34%.

**Q.** And the SI [3]?
**A.** The SI was -66%.
